Test results reported in the supplement of paper PMC10307832.

Assays:
Assay in all cases: relative viability (nuclei count vs DMSO), 5 days (fraction); higher = more cells survive
[1] = system: BEN
Outline: (§1)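 For relative viability, nuclei counts in treated wells were divided by those in vehicle wells. Lung cancer cell lines had been pin-tool dosed in 1536-well plates the day after seeding and cultured for 5 days, then fixed and stained in one step (final 0.05% Triton X-100, 1% formaldehyde, 1 ug/ml Hoechst) and imaged at 4×. Doses were one drug alone or a fixed anchor-drug dose plus five library-drug doses (not always all listed) in √10 steps, and values are duplicate-plate medians.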

[2] = system: EMC-BAC-2
Outline: as §1

[3] = system: HCC-366
Outline: as §1

[4] = system: HCC-78
Outline: as §1

[5] = system: LC-2-ad
Outline: as §1

[6] = system: LXF-289
Outline: as §1

[7] = system: NCI-H1563
Outline: as §1

[8] = system: NCI-H1623
Outline: as §1

[9] = system: NCI-H1650
Outline: as §1

[10] = system: NCI-H1666
Outline: as §1

[11] = system: NCI-H1915
Outline: as §1

[12] = system: NCI-H1944
Outline: as §1

[13] = system: NCI-H1993
Outline: as §1

[14] = system: NCI-H2085
Outline: as §1

[15] = system: NCI-H2087
Outline: as §1

[16] = system: NCI-H2170
Outline: as §1

[17] = system: NCI-H2228
Outline: as §1

[18] = system: NCI-H2347
Outline: as §1

[19] = system: NCI-H358
Outline: as §1

[20] = system: NCI-H650
Outline: as §1

[21] = system: NCI-H727
Outline: as §1

[22] = system: PC-14
Outline: as §1

[23] = system: RERF-LC-KJ
Outline: as §1

[24] = system: SW 900
Outline: as §1

SMILES: Nc1cccc2c1CN(C1CCC(=O)NC1=O)C2=O (stereo unspecified) [Lenalidomide] + N=C(N)NC(=N)NCCc1ccccc1 [Phenformin] (partner 250 µM)
- relative viability ([1]; first compound 0.253 µM): 0.287
- relative viability ([1]; first compound 0.8 µM): 0.268
- relative viability ([1]; first compound 2.53 µM): 0.285
- relative viability ([1]; first compound 8 µM): 0.222
- relative viability ([2]; first compound 0.253 µM): 0.527
- relative viability ([2]; first compound 0.8 µM): 0.525
- relative viability ([2]; first compound 2.53 µM): 0.598
- relative viability ([2]; first compound 8 µM): 0.459
- relative viability ([3]; first compound 0.253 µM): 0.564
- relative viability ([3]; first compound 0.8 µM): 0.547
- relative viability ([3]; first compound 2.53 µM): 0.691
- relative viability ([3]; first compound 8 µM): 0.548
- relative viability ([4]; first compound 0.253 µM): 0.825
- relative viability ([4]; first compound 0.8 µM): 0.625
- relative viability ([4]; first compound 2.53 µM): 0.909
- relative viability ([4]; first compound 8 µM): 0.448
- relative viability ([5]; first compound 0.253 µM): 0.567
- relative viability ([5]; first compound 2.53 µM): 0.64
- relative viability ([5]; first compound 8 µM): 0.585
- relative viability ([6]; first compound 0.253 µM): 0.536
- relative viability ([6]; first compound 0.8 µM): 0.547
- relative viability ([6]; first compound 2.53 µM): 0.565
- relative viability ([6]; first compound 8 µM): 0.58
- relative viability ([7]; first compound 0.253 µM): 0.667
- relative viability ([7]; first compound 0.8 µM): 0.774
- relative viability ([7]; first compound 2.53 µM): 0.697
- relative viability ([7]; first compound 8 µM): 0.613
- relative viability ([8]; first compound 0.253 µM): 0.572
- relative viability ([8]; first compound 0.8 µM): 0.576
- relative viability ([8]; first compound 2.53 µM): 0.601
- relative viability ([8]; first compound 8 µM): 0.544
- relative viability ([9]; first compound 0.8 µM): 0.376
- relative viability ([9]; first compound 2.53 µM): 0.554
- relative viability ([9]; first compound 8 µM): 0.483
- relative viability ([10]; first compound 0.253 µM): 0.331
- relative viability ([10]; first compound 2.53 µM): 0.635
- relative viability ([10]; first compound 8 µM): 0.527
- relative viability ([11]; first compound 0.253 µM): 0.358
- relative viability ([11]; first compound 0.8 µM): 0.373
- relative viability ([11]; first compound 2.53 µM): 0.401
- relative viability ([11]; first compound 8 µM): 0.406
- relative viability ([12]; first compound 0.253 µM): 0.213
- relative viability ([12]; first compound 0.8 µM): 0.191
- relative viability ([12]; first compound 2.53 µM): 0.223
- relative viability ([12]; first compound 8 µM): 0.174
- relative viability ([13]; first compound 0.253 µM): 0.429
- relative viability ([13]; first compound 0.8 µM): 0.553
- relative viability ([13]; first compound 2.53 µM): 0.551
- relative viability ([13]; first compound 8 µM): 0.516
- relative viability ([14]; first compound 0.253 µM): 0.604
- relative viability ([14]; first compound 0.8 µM): 0.653
- relative viability ([14]; first compound 2.53 µM): 0.827
- relative viability ([14]; first compound 8 µM): 0.562
- relative viability ([15]; first compound 0.253 µM): 0.416
- relative viability ([15]; first compound 0.8 µM): 0.372
- relative viability ([15]; first compound 2.53 µM): 0.505
- relative viability ([15]; first compound 8 µM): 0.477
- relative viability ([16]; first compound 0.253 µM): 0.47
- relative viability ([16]; first compound 0.8 µM): 0.425
- relative viability ([16]; first compound 2.53 µM): 0.414
- relative viability ([16]; first compound 8 µM): 0.481
- relative viability ([17]; first compound 0.253 µM): 0.273
- relative viability ([17]; first compound 0.8 µM): 0.327
- relative viability ([17]; first compound 2.53 µM): 0.27
- relative viability ([17]; first compound 8 µM): 0.264
- relative viability ([18]; first compound 0.253 µM): 0.409
- relative viability ([18]; first compound 0.8 µM): 0.488
- relative viability ([18]; first compound 2.53 µM): 0.497
- relative viability ([18]; first compound 8 µM): 0.206
- relative viability ([19]; first compound 0.253 µM): 0.338
- relative viability ([19]; first compound 0.8 µM): 0.371
- relative viability ([19]; first compound 2.53 µM): 0.405
- relative viability ([19]; first compound 8 µM): 0.359
- relative viability ([20]; first compound 0.253 µM): 0.528
- relative viability ([20]; first compound 2.53 µM): 0.523
- relative viability ([20]; first compound 8 µM): 0.42
- relative viability ([21]; first compound 0.253 µM): 0.613
- relative viability ([21]; first compound 0.8 µM): 0.53
- relative viability ([21]; first compound 2.53 µM): 0.505
- relative viability ([21]; first compound 8 µM): 0.423
- relative viability ([22]; first compound 0.253 µM): 0.637
- relative viability ([22]; first compound 0.8 µM): 0.454
- relative viability ([22]; first compound 2.53 µM): 0.606
- relative viability ([22]; first compound 8 µM): 0.548
- relative viability ([23]; first compound 0.253 µM): 0.403
- relative viability ([23]; first compound 0.8 µM): 0.463
- relative viability ([23]; first compound 2.53 µM): 0.431
- relative viability ([23]; first compound 8 µM): 0.441
- relative viability ([24]; first compound 0.253 µM): 0.583
- relative viability ([24]; first compound 2.53 µM): 0.747
- relative viability ([24]; first compound 8 µM): 0.688
